Drawing on patent US8586588B2, “Aryl pyridazinone derivatives and their use as H3 receptor ligands” (Cephalon, Inc., priority 2006, dated 2013), this text covers melting point and Ki for 22 compounds.

pKi: −log10 of the molar value.

Data set [1] has as its target T1, rat histamine H3 receptor (Rattus norvegicus, UniProt Q9QYN8).
T1 construct: encoding the entire 445-amino-acid rat histamine H3 receptor; expressed in transfected cells
Put plainly: Rat H3 radioligand binding ([3H]-N-alpha-methylhistamine, CHO-A3 cell membranes, SPA). The following applies: Table B, binding constant as letter class; read-out: rat H3 Ki. An outline of the steps:
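Membranes from CHO-A3 cells stably expressing rat H3 (10 μg protein) incubated 4 h at room temperature in 50 mM Tris-HCl pH 7.4, 5 mM MgCl2, 0.1% BSA with ~1 nM [3H]-N-alpha-methylhistamine and compound (0.01 nM-30 μM). Bound radioligand read by scintillation proximity; nonspecific binding with 10 μM clobenpropit.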

Data set [2] has as its target T2, human H3 receptor (Homo sapiens, UniProt Q9Y5N1).
T2 construct: expressed in transfected cells
Put plainly: Human H3 radioligand binding ([3H]-N-alpha-methylhistamine, CHO cell membranes, SPA). The following applies: Table B. The gist of the method: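 CHO cell membranes expressing human H3 (10 μg protein/well) incubated 4 h at room temperature, in the dark, with ~1 nM [3H]-N-alpha-methylhistamine, compounds (0.01 nM-30 μM) and SPA beads in 50 mM Tris HCl pH 7.4, 5 mM MgCl2, 0.1% BSA. Non-specific binding defined with 10 μM clobenpropit.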

Setting [3] is: binding constant as letter class.

T1 sequence (Q9QYN8 whole entry): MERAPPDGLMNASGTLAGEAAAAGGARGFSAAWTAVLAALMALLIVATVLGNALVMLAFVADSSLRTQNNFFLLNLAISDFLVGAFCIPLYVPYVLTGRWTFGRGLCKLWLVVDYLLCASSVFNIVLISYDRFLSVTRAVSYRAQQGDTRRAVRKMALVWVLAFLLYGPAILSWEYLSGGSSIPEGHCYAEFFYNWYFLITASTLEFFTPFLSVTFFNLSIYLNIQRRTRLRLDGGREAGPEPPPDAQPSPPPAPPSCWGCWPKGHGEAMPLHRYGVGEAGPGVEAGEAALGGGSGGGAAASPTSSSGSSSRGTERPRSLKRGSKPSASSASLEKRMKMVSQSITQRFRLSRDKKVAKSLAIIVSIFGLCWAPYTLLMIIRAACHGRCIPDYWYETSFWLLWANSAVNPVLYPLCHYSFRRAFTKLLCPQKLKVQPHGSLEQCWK
T2 sequence (Q9Y5N1 whole entry): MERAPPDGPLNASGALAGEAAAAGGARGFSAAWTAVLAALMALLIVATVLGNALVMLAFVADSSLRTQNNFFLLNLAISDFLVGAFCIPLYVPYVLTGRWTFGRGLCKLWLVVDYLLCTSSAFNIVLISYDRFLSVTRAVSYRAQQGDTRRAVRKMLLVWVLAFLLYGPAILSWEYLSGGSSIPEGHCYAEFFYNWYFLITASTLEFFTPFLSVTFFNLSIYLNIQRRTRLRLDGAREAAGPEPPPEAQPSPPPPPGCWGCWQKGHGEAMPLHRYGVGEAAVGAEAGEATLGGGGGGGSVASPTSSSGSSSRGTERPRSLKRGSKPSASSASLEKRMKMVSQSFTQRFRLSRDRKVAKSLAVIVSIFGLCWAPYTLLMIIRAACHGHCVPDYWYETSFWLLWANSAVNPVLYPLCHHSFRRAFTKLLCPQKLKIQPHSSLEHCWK

As to `C[C@@H]1CCCN1CCCOc1ccc(-c2ccc(=O)[nH]n2)cn1` [Example 146, 6-{6-[3-((R)-2-Methyl-pyrrolidin-1-yl)-propoxy]-pyridin-3-yl}-2H-pyridazin-3-one], the melting point (in general, the temperature, or range, at which the solid turns liquid) was in the range of 178 to 181 °C. In data set [1], the negative-log Ki (pKi) (usually −log10 of the Ki, conventionally taken in molar units) was 7.00 to 10.00. This compound also gave a negative-log Ki (pKi) in data set [2] (setting [3]) of 7.00 to 10.00.
For the compound `C[C@@H]1CCCN1CCCOc1ccc(-n2nc(-c3ccccc3)ccc2=O)cc1` [Example 200, 2-{4-[3-((R)-2-Methyl-pyrrolidin-1-yl)-propoxy]-phenyl}-6-phenyl-2H-pyridazin-3-one], the melting point is 86 to 89 °C. The pKi in data set [1] is 7.00 to 10.00. In addition, the negative logarithm of the Ki (pKi) in data set [2] (setting [3]) is 7.00 to 10.00.
`O=c1ccc(-c2ccc(OC[C@H](O)CN3CCCCC3)cc2)n[nH]1` [Example 259, 6-[4-((R)-2-Hydroxy-3-piperidin-1-yl-propoxy)-phenyl]-2H-pyridazin-3-one]: the melting point amounted to 167 °C. In addition, in data set [1], the pKi is 6.30 to 7.00. This compound also gave a negative logarithm of the Ki (pKi) in data set [2] (setting [3]) of 6.30 to 7.00.
The compound `O=c1ccc(-c2ccc(OC3CCN(C4CCC4)CC3)c(F)c2)n[nH]1` [Example 156, 6-[4-(1-Cyclobutyl-piperidin-4-yloxy)-3-fluoro-phenyl]-2H-pyridazin-3-one] came in with a melting point of 236 to 238 °C. Moreover, the pKi in data set [1] was 7.00 to 10.00. The pKi in data set [2] (setting [3]) is 7.00 to 10.00.
In turn, `C[C@@H]1CCCN1CCCOc1ccc(-c2ccc(=O)n(CC(F)(F)F)n2)cc1` [Example 170, 6-{4-[3-((R)-2-Methyl-pyrrolidin-1-yl)-propoxy]-phenyl}-2-(2,2,2-trifluoro-ethyl)-2H-pyridazin-3-one] showed a melting point of 121 to 123 °C. Moreover, in data set [1], the pKi was 7.00 to 10.00. In data set [2] (setting [3]), this compound had a pKi of 7.00 to 10.00.
On to `O=c1ccc(-c2ccc(OC3CCN(C4CCC4)CC3)cc2F)n[nH]1` [Example 221, 6-[4-(1-Cyclobutyl-piperidin-4-yloxy)-2-fluoro-phenyl]-2H-pyridazin-3-one], for which the melting point was over 300 °C. In data set [1], the pKi is 7.00 to 10.00. In addition, in data set [2] (setting [3]), the pKi was 7.00 to 10.00.
Regarding `O=c1ccc(-c2ccc(O[C@@H]3CCN(C4CCCCC4)C3)cc2)n[nH]1` [Example 160, 6-[4-((R)-1-Cyclohexyl-pyrrolidin-3-yloxy)-phenyl]-2H-pyridazin-3-one], the melting point fell in the range of 200 to 202 °C. The pKi in data set [1] is 6.30 to 7.00. The compound further gave a pKi in data set [2] (setting [3]) of 6.30 to 7.00.
As to `C[C@@H]1CCCN1CCCOc1c(Br)cc(-c2ccc(=O)[nH]n2)cc1Br` [Example 185, 6-{3,5-Dibromo-4-[3-((R)-2-methyl-pyrrolidin-1-yl)-propoxy]-phenyl}-2H-pyridazin-3-one], the melting point was in the range of 165 to 167 °C. For the same compound, in data set [1], the pKi was 7.00 to 10.00. In addition, the pKi in data set [2] (setting [3]) is 7.00 to 10.00.
In the case of `Cc1cc(OCCCN2CCCCC2)ccc1-c1ccc(=O)[nH]n1` [Example 137, 6-[2-Methyl-4-(3-piperidin-1-yl-propoxy)-phenyl]-2H-pyridazin-3-one], the melting point was 114 °C (dec.). For the same compound, the pKi in data set [1] is 7.00 to 10.00. Moreover, in data set [2] (setting [3]), the pKi is 7.00 to 10.00.
Consider `C[C@@H]1CCCN1CCCOc1c(F)cc(-c2ccc(=O)n(C)n2)cc1F` [Example 84, 6-{3,5-Difluoro-4-[3-((R)-2-methyl-pyrrolidin-1-yl)-propoxy]-phenyl}-2-methyl-2H-pyridazin-3-one], for which the melting point was 175 to 178 °C. For the same compound, in data set [1], the pKi was 7.00 to 10.00. In data set [2] (setting [3]), the pKi was 7.00 to 10.00.
Compound `C[C@@H]1CCCN1CCCOc1ccc(-c2ccc(=O)[nH]n2)c(F)c1` [Example 214, 6-{2-Fluoro-4-[3-((R)-2-methyl-pyrrolidin-1-yl)-propoxy]-phenyl}-2H-pyridazin-3-one] came in with a melting point of 220 to 222 °C. Moreover, in data set [1], the pKi was 7.00 to 10.00. The same compound showed a negative logarithm of the Ki (pKi) in data set [2] (setting [3]) of 7.00 to 10.00.
The compound `O=C1CCC(c2ccc(OC3CCN(C4CCCC4)CC3)cc2)=NN1CC(F)(F)F` [Example 167, 6-[4-(1-Cyclopentyl-piperidin-4-yloxy)-phenyl]-2-(2,2,2-trifluoro-ethyl)-4,5-dihydro-2H-pyridazin-3-one] gave a melting point of 225 to 227 °C. Besides, the pKi in data set [1] was 7.00 to 10.00. Besides, in data set [2] (setting [3]), the pKi is 7.00 to 10.00.
Compound `N#Cc1cc(-c2ccc(=O)[nH]n2)ccc1OCCCN1CCCCC1` [Example 130, 2-[3-(piperidin-1-yl)-propoxy]-5-(6-oxo-1,6-dihydro-pyridazin-3-yl)-benzonitrile] returned a melting point of 207 to 209 °C. For the same compound, the pKi in data set [1] was 6.30 to 7.00. Also, the negative logarithm of the Ki (pKi) in data set [2] (setting [3]) was 6.30 to 7.00.
`Cc1onc2c(=O)[nH]nc(-c3ccc(OCCCN4CCC[C@H]4C)cc3)c12` [Example 208, 3-Methyl-4-{4-[3-((R)-2-methyl-pyrrolidin-1-yl)-propoxy]-phenyl}-6H-isoxazolo[3,4-d]pyridazin-7-one] had a melting point of 169 to 170 °C. Besides, in data set [1], the pKi was 7.00 to 10.00. In data set [2] (setting [3]), this compound showed a pKi of 7.00 to 10.00.
`O=c1[nH]nc(-c2ccc(OCCCN3CCCCC3)cc2)c2c1CCC2` [Example 133, 4-[4-(3-Piperidin-1-yl-propoxy)-phenyl]-2,5,6,7-tetrahydro-cyclopenta[d]pyridazin-1-one]: the melting point was 134 °C (dec.). Further, the pKi in data set [1] is 7.00 to 10.00. The compound also gave a pKi in data set [2] (setting [3]) of 7.00 to 10.00.
The compound `O=c1ccc(-c2ccc(OCC(O)CN3CCCCC3)cc2)n[nH]1` (stereo not drawn) [Example 255, 6-[4-(2-Hydroxy-3-piperidin-1-yl-propoxy)-phenyl]-2H-pyridazin-3-one] gave a melting point of 185 °C. The pKi in data set [1] was 6.30 to 7.00. The compound further gave a pKi in data set [2] (setting [3]) of 6.30 to 7.00.
Take `C[C@@H]1CCCN1C[C@@H](O)COc1ccc(-c2ccc(=O)[nH]n2)cc1` [Example 258, 6-{4-[(R)-2-Hydroxy-3-((R)-2-methyl-pyrrolidin-1-yl)-propoxy]-phenyl}-2H-pyridazin-3-one]: the melting point turned out to be 147 °C. In addition, the negative logarithm of the Ki (pKi) in data set [1] is 7.00 to 10.00. In data set [2] (setting [3]), this compound had a pKi of 7.00 to 10.00.
In turn, `O=C1CCC(c2ccc(OCCCN3CCCCC3)cc2)=NN1CC(F)(F)F` [Example 169, 6-{4-[3-piperidin-1-yl-propoxy]-phenyl}-2-(2,2,2-trifluoro-ethyl)-4,5-dihydro-2H-pyridazin-3-one] had a melting point of 87 to 89 °C. Besides, the pKi in data set [1] is 7.00 to 10.00. The pKi in data set [2] (setting [3]) was 7.00 to 10.00.
As for `O=c1ccc(-c2ccc(OCCCN3CCCCC3)nc2)n[nH]1` [Example 147, 6-[6-(3-Piperidin-1-yl-propoxy)-pyridin-3-yl]-2H-pyridazin-3-one], the melting point is 155 to 158 °C. Besides, the pKi in data set [1] is 6.30 to 7.00. For the same compound, the pKi in data set [2] (setting [3]) was 7.00 to 10.00.
`CCC1CC(=O)NN=C1c1ccc(OC2CCN(C3CCC3)CC2)cc1` (stereo not drawn) [Example 192]: the melting point was in the range of 152 to 154 °C. Further, the pKi in data set [1] is 7.00 to 10.00. The compound also had a pKi in data set [2] (cell prints a number instead of a letter) of 8.40.
Consider `O=C1CCC(c2ccc(O[C@@H]3CCN(C4CCCCC4)C3)cc2)=NN1` [Example 159, 6-[4-((R)-1-Cyclohexyl-pyrrolidin-3-yloxy)-phenyl]-4,5-dihydro-2H-pyridazin-3-one], for which the melting point is 184 to 186 °C. Further, the pKi in data set [1] is under 6.00. This compound had a pKi in data set [2] (setting [3]) of under 6.00.
`COc1cc(-c2ccc(=O)[nH]n2)ccc1OCCCN1CCCCC1` [Example 135, 6-[3-Methoxy-4-(3-piperidin-1-yl-propoxy)-phenyl]-2H-pyridazin-3-one]: the melting point was 175 °C (dec.). In data set [1], the pKi was 6.30 to 7.00. Besides, the pKi in data set [2] (setting [3]) is 6.30 to 7.00.
